Values quoted from earlier work as cited in US20110295365A1, “Anti-viral compositions and methods for administration” (Searete LLC, a limited liability corporation of the State …, priority 2010, published 2011).

Columns and labels:
[1] = system: varicella zoster virus
[2] = in vivo

O=C[C@@H](O)[C@@H](O)[C@H](O)[C@H](O)COP(=O)(O)O [mannose 6-phosphate]
inhibition of viral entry [1]: inhibition of viral entry

enfuvirtide
passage across the placenta from mother to child [2]: do not efficiently pass from mother to child

heparin
inhibition of viral entry [1]: inhibition of viral entry
